What was measured:
[1] = system: A2780cisR; assay: Ovarian carcinoma cytotoxicity assay; assay type: cell-based, human; conditions: Homo sapiens, A2780cisR, 96 h, read-out: IC50 A2780cisR, cisplatin-resistant, 96 hours, sulphorhodamine B
In short: (§1)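 Cells attached overnight, then read 96 hours later by sulphorhodamine B staining of TCA-fixed cells, with absorbance at 540 nm. IC50 taken from concentration versus % absorbance relative to untreated wells; cisR lines are cisplatin-resistant.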

[2] = system: A2780; assay: Ovarian carcinoma cytotoxicity assay; assay type: cell-based, human; conditions: Homo sapiens, A2780, 96 h, read-out: IC50 A2780, 96 hours, sulphorhodamine B
In short: as §1

[3] = system: SK-MEL-2; assay: NCI in vitro cytotoxicity screen; assay type: cell-based; conditions: Homo sapiens, SK-MEL-2, 48 h, read-out: LC50
Method: (§2) The National Cancer Institute (NCI), Bethesda, Md., USA has available an in vitro cytotoxicity screen which consists of approximately 60 human tumour cell lines against which compounds are tested at a minimum of five concentrations each differing 10-fold. A 48 hour continuous exposure protocol is used, where cell viability or growth is estimated with an SRB protein assay.
(§3) The test compounds were evaluated against approximately 60 human tumour cell lines. The NCI screening procedures were described in detail by Monks and co-workers (Monks, A et al., Journal of the National Cancer Institute, 1991, 83, 757). Briefly, cell suspensions were diluted according to the particular cell type and the expected target cell density (5000-40,000 cells per well based on cell growth characteristics), and added by pipette (100 μL) into 96-well microtitre plates. The cells were allowed a preincubation period of 24 hours at 37° C. for stabilisation. Dilutions at twice the intended test concentration were added at time zero in 100 μL aliquots to the wells. The test compounds were evaluated at five 10-fold dilutions (10^−4, 10^−5, 10^−6, 10^−7 and 10^−[…]). The test compounds were incubated for 48 hours in 5% CO2 atmosphere and 100% humidity. The cells were then assayed using the sulphorhodamine B assay. A plate reader was used to read the optical densities and a microcomputer processed the readings into LC50 values, which is the dosage required to kill half of the cells.

[4] = system: MALME-3M; assay: NCI in vitro cytotoxicity screen; assay type: cell-based; conditions: Homo sapiens, Malme-3M, 48 h, read-out: LC50
Method: as §2, §3

[5] = system: M14; assay: NCI in vitro cytotoxicity screen; assay type: cell-based; conditions: Homo sapiens, M14, 48 h, read-out: LC50
Method: as §2, §3

[6] = system: SF-539; assay: NCI in vitro cytotoxicity screen; assay type: cell-based; conditions: Homo sapiens, SF-539, 48 h, read-out: LC50
Method: as §2, §3

[7] = system: NCI-H522; assay: NCI in vitro cytotoxicity screen; assay type: cell-based; conditions: Homo sapiens, NCI-H522, 48 h, read-out: LC50
Method: as §2, §3

[8] = system: LOX IMVI; assay: NCI in vitro cytotoxicity screen; assay type: cell-based; conditions: Homo sapiens, 48 h, read-out: LC50
Method: as §2, §3

[9] = system: RXF 393; assay: NCI in vitro cytotoxicity screen; assay type: cell-based; conditions: Homo sapiens, RXF 393, 48 h, read-out: LC50
Method: as §2, §3

[10] = system: SK-MEL-28; assay: NCI in vitro cytotoxicity screen; assay type: cell-based; conditions: Homo sapiens, SK-MEL-28, 48 h, read-out: LC50
Method: as §2, §3

[11] = system: SKOV-3; assay: Ovarian carcinoma cytotoxicity assay; assay type: cell-based; conditions: Homo sapiens, SK-OV-3, 96 h, read-out: IC50 Skov3, 96 hours, sulphorhodamine B
In short: as §1

[12] = system: CH1cisR; assay: Ovarian carcinoma cytotoxicity assay; assay type: cell-based; conditions: Homo sapiens, CH1cisR, 96 h, read-out: IC50 CH1cisR, cisplatin-resistant, 96 hours, sulphorhodamine B
In short: as §1

[13] = system: CH1; assay: Ovarian carcinoma cytotoxicity assay; assay type: cell-based; conditions: Homo sapiens, CH1, 96 h, read-out: IC50 CH1, 96 hours, sulphorhodamine B
In short: as §1

[14] = system: SF-295; assay: cells; assay type: cell-based; conditions: Homo sapiens, SF-295, 48 h, read-out: LC50
Method: as §2
as §3, with “The test compounds were incubated for 48 hours in 5% CO2 atmosphere and 100% humidity. The cells were then assayed using the sulphorhodamine B assay.” left out

[15] = system: HS 578T; assay: NCI in vitro cytotoxicity screen; assay type: cell-based; conditions: Homo sapiens; HS 578T (Breast), 48 hour exposure, SRB assay; read-out: LC50 (the source's name)
Method: as §2, §3

[16] = system: MDA-MB-435; assay: NCI in vitro cytotoxicity screen; assay type: cell-based; conditions: Homo sapiens, MDA-MB-435, 48 h, read-out: LC50
Method: as §2, §3

[17] = system: SNB-75; assay: NCI in vitro cytotoxicity screen; assay type: cell-based; conditions: Homo sapiens, SNB-75, 48 h, read-out: LC50
Method: as §2, §3

[18] = system: COLO 205; assay: NCI in vitro cytotoxicity screen; assay type: cell-based; conditions: Homo sapiens, COLO 205, 48 h, read-out: LC50
Method: as §2, §3

[19] = system: KM12; assay: NCI in vitro cytotoxicity screen; assay type: cell-based; conditions: Homo sapiens; KM12 (Colon), 48 hour exposure, SRB assay; read-out: LC50 (the source's name)
Method: as §2, §3

Row | Structure (SMILES) | IC50 [1] [µM] | IC50 [2] [µM] | CC50 [3] [µM] | CC50 [4] [µM] | CC50 [5] [µM] | CC50 [6] [µM] | CC50 [7] [µM] | CC50 [8] [µM] | CC50 [9] [µM] | CC50 [10] [µM] | IC50 [11] [µM] | IC50 [12] [µM] | IC50 [13] [µM] | CC50 [14] [µM] | CC50 [15] [µM] | CC50 [16] [µM] | CC50 [17] [µM] | CC50 [18] [µM] | CC50 [19] [µM]
1 | COc1cc2c(cc1OCCC(=O)N1CCCC1)N=C[C@@H]1CCCN1C2=O [UP2005 (161), 3-(7-methoxy-5-oxy(11aS)-2,3,5,11a-tetrahydro-1H-benzo[e]pyrrolo[1,2-a][1,4]diazepin-8-yloxy)-1-perhydro-1-pyrrolyl-1-propanone] | 4.3 | 1.5 | 7.6 | 7.5 | 6.2 | 7.7 | 8.7 | 9.2 | 6.8 | 6.5 | 5.4 | 1.85 | 1.4 | 8.8 |  |  |  |  | 
2 | Nc1ccc2c(c1)N=C[C@@H]1CCCN1C2=O [UP2028 (151), (11aS)-8-amino-1,2,3,11a-tetrahydro-5H-pyrrolo[2,1-c][1,4]benzodiazepin-5-one] |  |  | 5.4 | 5.7 |  |  | 0.8 |  | 0.7 | 8.1 |  |  |  |  | 9.2 | 7.2 | 8.2 | 5 | 8.8
